Experimental findings from patent US20080114047A1 (priority 2003, published 2008) are described below.

The structures appear in SMILES notation. Structures can show the parent of a compound that is named as a salt.

As to `N=C(NO)c1ccc2oc(CCCCCc3cc4cc(C(=N)NO)ccc4o3)cc2c1` (as salt: HCl) [Compound 192, 2-(5-(5-(N-Hydroxycarbamimidoyl)benzofuran-2-yl)pentyl)-N-hydroxybenzofuran-5-carboxamidine], the melting point is 120 °C (dec.).

With `Cl.Cl.c1cc2oc(CCCCc3cc4cc(C5=NCCN5)ccc4o3)cc2cc1C1=NCCN1` [Compound 22, 4,5-Dihydro-2-(2-(4-(5-(4,5-dihydro-1H-imidazol-2-yl)benzofuran-2-yl)butyl)benzofuran-5-yl)-1H-imidazole dihydrochloride], the melting point was 323 to 324 °C (dec.).

Compound `Cl.Cl.N=C(N)c1ccc2oc(CCCc3cc4cc(C(=N)N)ccc4o3)cc2c1` [Compound 14, 2-(3-(5-Amidinobenzofuran-2-yl)propyl)benzofuran-5-carboxamidine dihydrochloride] displayed a melting point of 168 to 170 °C.

For `CONC(=N)c1ccc2oc(CCCCCc3cc4cc(C(=N)NOC)ccc4o3)cc2c1` (as salt: HCl) [Compound 193, 2-(5-(5-(N-Methoxycarbamimidoyl)benzofuran-2-yl)pentyl)-N-methoxybenzofuran-5-carboxamidine], the melting point is 118 °C (dec.).

As to `Cl.Cl.c1cc2oc(CCCc3cc4cc(C5=NCCN5)ccc4o3)cc2cc1C1=NCCN1` [Compound 16, 4,5-Dihydro-2-(2-(3-(5-(4,5-dihydro-1H-imidazol-2-yl)benzofuran-2-yl)propyl)benzofuran-5-yl)-1H-imidazole dihydrochloride], the melting point fell in the range of 203 to 205 °C.

For the compound `CONC(=N)c1ccc2cc(CCCCCc3cc4ccc(C(=N)NOC)cc4o3)oc2c1` (as salt: HCl) [Compound 187, 2-(5-(6-(N-Methoxycarbamimidoyl)benzofuran-2-yl)pentyl)-N-methoxybenzofuran-6-carboxamidine], the melting point is 230 to 231 °C (dec.).

In turn, `Cl.Cl.N=C(N)c1ccc(OCCCOc2ccc(-c3cc4ccc(C(=N)N)cc4o3)cc2)cc1` came in with a melting point of 294 to 295 °C.

`c1cc(OCCCCCCOc2ccc(C3=NCCN3)cc2)cc(-c2cc3cc(C4=NCCN4)ccc3o2)c1` (as salt: salt) [Compound 43, 2-(2-(3-(6-(4-(4,5-Dihydro-1H-imidazol-2-yl)phenoxy)hexyloxy)phenyl)benzofuran-5-yl)-4,5-dihydro-1H-imidazole] had a melting point of 178 to 182 °C.

Turning to `CONC(=N)c1ccc2oc(CCc3cc4cc(C(=N)NOC)ccc4o3)cc2c1` (as salt: HCl) [Compound 191, 2-(2-(5-(N-Methoxycarbamimidoyl)benzofuran-2-yl)ethyl)-N-methoxybenzofuran-5-carboxamidine], the melting point is 245 to 246 °C (dec.).

For the compound `Cl.Cl.c1cc2cc(CCc3cc4ccc(C5=NCCN5)cc4o3)oc2cc1C1=NCCN1` [Compound 13, 4,5-dihydro-2-(2-(2-(6-(4,5-dihydro-1H-imidazol-2-yl)benzofuran-2-yl)ethyl)benzofuran-6-yl)-1H-imidazole dihydrochloride], the melting point was more than 360 °C.

For `Cl.Cl.N=C(N)c1ccc2cc(CCCCCc3cc4ccc(C(=N)N)cc4o3)oc2c1` [Compound 29, 2-(5-(6-Amidinobenzofuran-2-yl)pentyl)benzofuran-6-carboxamidine dihydrochloride], the melting point was 243 to 245 °C (dec.).

With `N=C(NO)c1ccc(OCCCOc2ccc(-c3cc4cc(C(=N)NO)ccc4o3)cc2)cc1` (as salt: HCl) [Compound 182, 2-(4-(3-(4-(N-Hydroxycarbamimidoyl)phenoxy)propoxy)phenyl)-N-hydroxybenzofuran-5-carboxamidine], the melting point is 204 °C (dec.).

As to `N=C(NO)c1ccc(OCCCCCOc2ccc(-c3cc4cc(C(=N)NO)ccc4o3)cc2)cc1` (as salt: HCl) [Compound 183, 2-(4-(5-(4-(N-Hydroxycarbamimidoyl)phenoxy)pentyloxy)phenyl)-N-hydroxybenzofuran-5-carboxamidine], the melting point was 202 °C (dec.).

`Cl.Cl.N=C(N)c1ccc2cc(CCCCc3cc4ccc(C(=N)N)cc4o3)oc2c1` [Compound 23, 2-(4-(6-Amidinobenzofuran-2-yl)butyl)benzofuran-6-carboxamidine dihydrochloride]: the melting point is 328 to 330 °C (dec.).

In the case of `N=C(NO)c1ccc2oc(CCCc3cc4cc(C(=N)NO)ccc4o3)cc2c1` (as salt: HCl) [Compound 185, 2-(3-(5-(N-Hydroxycarbamimidoyl)benzofuran-2-yl)propyl)-N-hydroxybenzofuran-5-carboxamidine], the melting point was 145 to 147 °C (dec.).

As to `Cl.Cl.c1cc2cc(CCCCCc3cc4ccc(C5=NCCN5)cc4o3)oc2cc1C1=NCCN1` [Compound 31, 4,5-Dihydro-2-(2-(5-(6-(4,5-dihydro-1H-imidazol-2-yl)benzofuran-2-yl)pentyl)benzofuran-6-yl)-1H-imidazole dihydrochloride], the melting point was 308 to 310 °C (dec.).

Regarding `Cl.Cl.N=C(N)c1ccc2cc(CCc3cc4ccc(C(=N)N)cc4o3)oc2c1` [Compound 11, 2-(2-(6-Amidinobenzofuran-2-yl)ethyl)benzofuran-6-carboxamidine dihydrochloride], the melting point is 362 °C (dec.).

On to `CONC(=N)c1ccc2oc(CCCc3cc4cc(C(=N)NOC)ccc4o3)cc2c1` (as salt: HCl) [Compound 188, 2-(3-(5-(N-Methoxycarbamimidoyl)benzofuran-2-yl)propyl)-N-methoxybenzofuran-5-carboxamidine], for which the melting point was 89 to 90 °C (dec.).

For `N=C(NO)c1ccc2oc(CCCCc3cc4cc(C(=N)NO)ccc4o3)cc2c1` (as salt: HCl) [Compound 186, 2-(4-(5-(N-Hydroxycarbamimidoyl)benzofuran-2-yl)butyl)-N-hydroxybenzofuran-5-carboxamidine], the melting point was 231 °C (dec.).

The compound `Cl.Cl.c1cc2oc(Cc3cc4cc(C5=NCCN5)ccc4o3)cc2cc1C1=NCCN1` [Compound 6, Bis(5-(4,5-dihydro-1H-imidazol-2-yl)benzofuran-2-yl)methane dihydrochloride] displayed a melting point of 233 to 235 °C.

Consider `N=C(NO)c1ccc(-c2cc3ccc(C(=N)NO)cc3o2)cc1` (as salt: HCl) [Compound 181, 2-(4-(N-Hydroxycarbamimidoyl)phenyl)-N-hydroxybenzofuran-6-carboxamidine], for which the melting point is 210 °C (dec.).

Regarding `Cl.Cl.c1cc2cc(Cc3cc4ccc(C5=NCCN5)cc4o3)oc2cc1C1=NCCN1` [Compound 7, Bis(6-(4,5-dihydro-1H-imidazol-2-yl)benzofuran-2-yl)methane dihydrochloride], the melting point lay within 341 to 343 °C.

With `Cl.Cl.N=C(N)c1ccc2oc(CCCCc3cc4cc(C(=N)N)ccc4o3)cc2c1` [Compound 20, 2-(4-(5-Amidinobenzofuran-2-yl)butyl)benzofuran-5-carboxamidine dihydrochloride], the melting point was 325 to 327 °C (dec.).

Take `Cl.Cl.N=C(N)c1ccc2cc(CCCc3cc4ccc(C(=N)N)cc4o3)oc2c1` [Compound 17, 2-(3-(6-Amidinobenzofuran-2-yl)propyl)benzofuran-6-carboxamidine dihydrochloride]: the melting point was > 300 °C (dec.).

In the case of `N=C(NO)c1ccc2cc(CCCCCc3cc4ccc(C(=N)NO)cc4o3)oc2c1` (as salt: HCl) [Compound 184, 2-(5-(6-(N-Hydroxycarbamimidoyl)benzofuran-2-yl)pentyl)-N-hydroxybenzofuran-6-carboxamidine], the melting point was 220 °C (dec.).

Turning to `N=C(NO)c1cccc(-c2cc3ccc(C(=N)NO)cc3o2)c1` (as salt: HCl) [Compound 180, 2-(3-(N-Hydroxycarbamimidoyl)phenyl)-N-hydroxybenzofuran-6-carboxamidine], the melting point was 210 °C (dec.).

As for `Cl.Cl.c1cc2cc(CCCCc3cc4ccc(C5=NCCN5)cc4o3)oc2cc1C1=NCCN1` [Compound 25, 4,5-Dihydro-2-(2-(4-(6-(4,5-dihydro-1H-imidazol-2-yl)benzofuran-2-yl)butyl)benzofuran-6-yl)-1H-imidazole dihydrochloride], the melting point was 343 to 345 °C (dec.).

With `Cl.Cl.c1cc2oc(CCc3cc4cc(C5=NCCN5)ccc4o3)cc2cc1C1=NCCN1` [Compound 10, 4,5-Dihydro-2-(2-(2-(5-(4,5-dihydro-1H-imidazol-2-yl)benzofuran-2-yl)ethyl)benzofuran-5-yl)-1H-imidazole dihydrochloride], the melting point is 366 °C (dec.).

For `CONC(=N)c1ccc2oc(CCCCc3cc4cc(C(=N)NOC)ccc4o3)cc2c1` (as salt: HCl) [Compound 189, 2-(4-(5-(N-Methoxycarbamimidoyl)benzofuran-2-yl)butyl)-N-methoxybenzofuran-5-carboxamidine], the melting point was 248 to 250 °C (dec.).

The compound `Cl.Cl.c1cc2oc(CCCCCc3cc4cc(C5=NCCN5)ccc4o3)cc2cc1C1=NCCN1` [Compound 28, 4,5-Dihydro-2-(2-(5-(5-(4,5-dihydro-1H-imidazol-2-yl)benzofuran-2-yl)pentyl)benzofuran-5-yl)-1H-imidazole dihydrochloride] registered a melting point of 155 to 157 °C.

With `Cl.Cl.c1cc2cc(CCCc3cc4ccc(C5=NCCN5)cc4o3)oc2cc1C1=NCCN1` [Compound 19, 4,5-Dihydro-2-(2-(3-(6-(4,5-dihydro-1H-imidazol-2-yl)benzofuran-2-yl)propyl)benzofuran-6-yl)-1H-imidazole dihydrochloride], the melting point is > 300 °C (dec.).

Consider `Cl.Cl.N=C(N)c1ccc2oc(Cc3cc4cc(C(=N)N)ccc4o3)cc2c1` [Compound 4, 2-((5-Amidinobenzofuran-2-yl)methyl)benzofuran-5-carboxamidine dihydrochloride], for which the melting point lay within 212 to 214 °C.

Take `Cl.Cl.c1cc(C2=NCCN2)c2cc(Cc3cc4c(C5=NCCN5)cccc4o3)oc2c1` [Compound 3, Bis(4-(4,5-dihydro-1H-imidazol-2-yl)benzofuran-2-yl)methane dihydrochloride]: the melting point lay within 333 to 335 °C.

What is called melting point is the temperature of the solid-liquid transition.
